# Measurements published in ChEMBL document CHEMBL1201862, “PubChem BioAssay data set” (2004).
#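 These data come from cells grown in 96-well plates and exposed to compound for 48 hours at five concentrations. GI50 marks 50% less growth.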 Active and inactive are the calls of the source. No stated cut-off is given here; in the data, active = GI50 up to about 1.1 µM and inactive = higher.
# Legend:
# Assay in all cases: NCI tumour cell line growth inhibition, 48 h
# CAKI-1 = tested on: CAKI-1
# CCRF-CEM = tested on: CCRF-CEM
# COLO 205 = tested on: COLO 205
# EKVX = tested on: EKVX
# HCC 2998 = tested on: HCC 2998
# HCT-116 = tested on: HCT-116
# IGROV-1 = tested on: IGROV-1
# MDA-MB-231 = tested on: MDA-MB-231
# MDA-MB-435 = tested on: MDA-MB-435
# Malme-3M = tested on: Malme-3M
# NCI-H226 = tested on: NCI-H226
# NCI-H23 = tested on: NCI-H23
# PC-3 = tested on: PC-3
# RPMI-8226 = tested on: RPMI-8226
# RXF 393 = tested on: RXF 393
# SF-268 = tested on: SF-268
# SK-MEL-5 = tested on: SK-MEL-5
# SNB-19 = tested on: SNB-19
# SR = tested on: SR
# T47D = tested on: T47D
SMILES,GI50 (CAKI-1),GI50 (CCRF-CEM),GI50 (COLO 205),GI50 (EKVX),GI50 (HCC 2998),GI50 (HCT-116),GI50 (IGROV-1),GI50 (MDA-MB-231),GI50 (MDA-MB-435),GI50 (Malme-3M),GI50 (NCI-H226),GI50 (NCI-H23),GI50 (PC-3),GI50 (RPMI-8226),GI50 (RXF 393),GI50 (SF-268),GI50 (SK-MEL-5),GI50 (SNB-19),GI50 (SR),GI50 (T47D)
CC(C)(C)c1cc(/C=C(\C#N)C2=NCCO2)cc(C(C)(C)C)c1O,3.04 µM (inactive),2.4 µM (inactive),1.91 µM (inactive),4.99 µM (inactive),2.92 µM (inactive),3.07 µM (inactive),6.58 µM (inactive),3.14 µM (inactive),4.47 µM (inactive),7.26 µM (inactive),5.4 µM (inactive),3.44 µM (inactive),2.65 µM (inactive),1.86 µM (inactive),3.26 µM (inactive),4.61 µM (inactive),2.38 µM (inactive),4.43 µM (inactive),2.92 µM (inactive),2.64 µM (inactive)
O=C1OC(c2ccc([N+](=O)[O-])cc2)=N/C1=C\c1ccc(O)cc1,> 100 µM (inactive),> 100 µM (inactive),> 100 µM (inactive),> 100 µM (inactive),> 100 µM (inactive),> 100 µM (inactive),> 100 µM (inactive),> 100 µM (inactive),> 100 µM (inactive),> 100 µM (inactive),> 100 µM (inactive),> 100 µM (inactive),> 100 µM (inactive),> 100 µM (inactive),> 100 µM (inactive),> 100 µM (inactive),> 100 µM (inactive),> 100 µM (inactive),> 100 µM (inactive),> 100 µM (inactive)
CC1=C[C@@H](C)C[C@]2(C)CC[C@H](O2)[C@]23CC[C@](CO)(C[C@H](O2)[C@@H]2O[C@@](C)(CC2=O)[C@@H](O)[C@H]2CC[C@@]4(CCC[C@@H](O4)[C@H](C)C(=O)O[C@H]4C[C@H]([C@]5(O)OCC[C@H](C)[C@@H]5O)O[C@H]4C=C1)O2)O3,0.00724 µM (active),0.00471 µM (active),0.00192 µM (active),0.013 µM (active),0.0906 µM (active),0.0222 µM (active),0.00373 µM (active),0.0225 µM (active),0.0249 µM (active),0.00873 µM (active),0.00386 µM (active),0.0935 µM (active),0.0137 µM (active),> 10 µM (inactive),0.0118 µM (active),0.00279 µM (active),0.0142 µM (active),0.0197 µM (active),0.0139 µM (active),0.427 µM (active)
COc1cc(OC)c(/C=C\c2cc(/C=C/c3c(OC)cc(OC)cc3OC)c3ccccc3[n+]2C)c(OC)c1,6.61 µM (inactive),1.38 µM (inactive),1.67 µM (inactive),2.99 µM (inactive),3.48 µM (inactive),2.47 µM (inactive),3.24 µM (inactive),4.03 µM (inactive),2.48 µM (inactive),1.96 µM (inactive),5.96 µM (inactive),2.76 µM (inactive),2.6 µM (inactive),2 µM (inactive),3.41 µM (inactive),2.52 µM (inactive),1.31 µM (inactive),8.47 µM (inactive),2.24 µM (inactive),2.37 µM (inactive)
